In assay [1] the target is human TYK2 (JH2domain-pseudokinase) (Homo sapiens (Human), UniProt P29597). In words: TYK2 JH2 Domain Binding Assay (KINOMEscan). The gist of the method: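 Competition binding of an NFkB-DBD fusion of human TYK2 JH2 (G556–D888), expressed in HEK293 and used as crude extract at <0.1 nM, against immobilized ligand beads; 1 h at room temperature in PBS/Tween/DTT/BSA buffer, 0.9% DMSO.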

Assay [2] addresses Tyk2 kinase domain (DH1) (Homo sapiens (Human), UniProt P29597). Kind of assay: Tyk2 Radioactive Kinase Assay. Type of assay: biochemical. To be noted: read-out: Tyk2 JH1% Inhibition @ 10 μM. An outline of the steps: (§1)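 Single-point screen: 10 μM test compound, radioactive kinase read-out, percent inhibition reported for each kinase domain.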
Assay [3] addresses JAK2 kinase domain (JH1) (Homo sapiens (Human), UniProt O60674). In words: JAK2 Radioactive Kinase Assay. Conditions: read-out: JAK2 JH1% Inhibition @ 10 μM. Type of assay: biochemical. An outline of the steps: as §1

Data on 18 compounds can be found in patent US10508120B2, “TYK2 inhibitors and uses thereof” (Nimbus Lakshmi, Inc., priority 2017, dated 2019).

Like-named read-outs stand apart in the source and are kept apart here. A value given as a limit tells only on which side of the number the result lay.

Sequence of human TYK2 (JH2domain-pseudokinase) (P29597 556-888): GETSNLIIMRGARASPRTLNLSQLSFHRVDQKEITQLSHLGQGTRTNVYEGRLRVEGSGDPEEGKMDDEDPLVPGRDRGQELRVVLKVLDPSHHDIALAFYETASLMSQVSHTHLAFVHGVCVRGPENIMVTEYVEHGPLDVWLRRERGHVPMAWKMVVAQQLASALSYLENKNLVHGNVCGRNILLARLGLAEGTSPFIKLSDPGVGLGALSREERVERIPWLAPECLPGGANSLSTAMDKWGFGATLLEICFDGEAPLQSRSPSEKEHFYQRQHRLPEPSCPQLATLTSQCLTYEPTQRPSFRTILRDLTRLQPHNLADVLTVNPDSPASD
Sequence of Tyk2 kinase domain (DH1) (P29597 897-1176): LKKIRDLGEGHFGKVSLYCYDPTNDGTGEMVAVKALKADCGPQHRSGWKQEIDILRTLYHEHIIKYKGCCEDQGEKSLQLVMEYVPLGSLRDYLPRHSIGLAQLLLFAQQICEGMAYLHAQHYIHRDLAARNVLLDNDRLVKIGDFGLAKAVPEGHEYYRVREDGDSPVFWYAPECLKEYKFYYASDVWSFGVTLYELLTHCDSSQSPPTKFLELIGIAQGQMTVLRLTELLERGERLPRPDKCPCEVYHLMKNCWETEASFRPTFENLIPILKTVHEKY
Sequence of JAK2 kinase domain (JH1) (O60674 849-1124): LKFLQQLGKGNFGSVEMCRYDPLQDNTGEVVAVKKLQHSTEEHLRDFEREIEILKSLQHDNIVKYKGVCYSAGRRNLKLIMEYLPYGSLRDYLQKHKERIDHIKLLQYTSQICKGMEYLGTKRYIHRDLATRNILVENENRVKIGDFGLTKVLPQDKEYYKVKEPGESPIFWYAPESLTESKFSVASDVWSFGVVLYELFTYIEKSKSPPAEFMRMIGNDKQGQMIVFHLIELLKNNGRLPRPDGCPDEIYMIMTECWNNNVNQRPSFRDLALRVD

A word on the Kd: it is a measure of binding affinity in units of concentration. A lower Kd goes with tighter binding. By inhibition is commonly meant the share of the control response that was lost under treatment. Regarding `CNc1cc(Nc2cccn(-c3ncccc3F)c2=O)nc2c(C(=O)NC[C@H](C)CO)cnn12` [I-868], the Kd in assay [1] was under 0.2 nM. The inhibition at 10 µM in assay [2] (10 μM compound, 10 μM ATP) is under 50%; in assay [3] (10 μM compound, 10 μM ATP) it was under 50%.

The compound `CNc1cc(Nc2cccnc2OC2CCOCC2)nc2c(C(=O)NC3CCC3)cnn12` [I-185] returned a Kd in assay [1] of 0.2 to 1 nM. The inhibition at 10 µM was under 50% in assay [2] (compound at 10 μM, ATP 10 μM) and under 50% in assay [3] (compound at 10 μM, ATP 10 μM).

`CNc1cc(-c2cn(CCN3CCN(C)CC3)c3ncccc23)nc2c(C(=O)N[C@H]3CC[C@@H]3O)cnn12` (stereo in doubt) [I-852, N-(2-hydroxycyclobutyl)-7-(methylamino)-5-(1-(2-(4-methylpiperazin-1-yl)ethyl)-1H-pyrrolo[2,3-b]pyridin-3-yl)pyrazolo[1,5-a]pyrimidine-3-carboxamide]: the dissociation constant Kd in assay [1] is under 0.2 nM. In addition, the inhibition at 10 µM in assay [2] (10 μM compound, 10 μM ATP) is under 50%; in assay [3] (10 μM compound, 10 μM ATP) it was under 50%.

For `CNc1cc(Nc2cccn([C@@H]3CCC[C@@H](OC)C3)c2=O)nc2c(C(=O)NCC(C)(C)CO)cnn12` [I-1028], the Kd in assay [1] lay within 0.2 to 1 nM. The inhibition at 10 µM in assay [2] (10 μM compound, 10 μM ATP) is under 50%; in assay [3] (10 μM compound, 10 μM ATP), under 50%.

As to `NC(=O)c1cnn2c(N)cc(Nc3cccn(C4CCN(CC(F)F)CC4)c3=O)nc12` [I-100], the Kd in assay [1] fell in the range of 1 to 10 nM. The inhibition at 10 µM in assay [2] (compound at 10 μM, ATP 10 μM) was under 50%; in assay [3] (compound at 10 μM, ATP 10 μM) it was under 50%.

As to `CNc1cc(Nc2cccn([C@H]3CCC[C@@H](OC)C3)c2=O)nc2c(C(=O)NCC(C)(C)CO)cnn12` [I-950], in assay [1], the equilibrium dissociation constant (Kd) lay in the range of 0.2 to 1 nM. Besides, the inhibition at 10 µM in assay [2] (10 μM compound, 10 μM ATP) is under 50%; in assay [3] (10 μM compound, 10 μM ATP) it was under 50%.

Consider `CNc1cc(Nc2cccn(-c3ncccc3F)c2=O)nc2c(C(=O)NC[C@@H](C)CO)cnn12` [I-869], for which, in assay [1], the dissociation constant (Kd) was under 0.2 nM. Moreover, the inhibition at 10 µM was under 50% in assay [2] (10 μM compound, 10 μM ATP) and under 50% in assay [3] (10 μM compound, 10 μM ATP).

Consider `CNc1cc(Nc2cccn([C@H]3CCCC[C@H]3OC)c2=O)nc2c(C(=O)NCC3(CO)CC3)cnn12` [I-1047], for which the dissociation constant (Kd) in assay [1] lay within 0.2 to 1 nM. The inhibition at 10 µM in assay [2] (10 μM compound, 10 μM ATP) was under 50%; in assay [3] (10 μM compound, 10 μM ATP), under 50%.

Regarding `CNc1cc(Nc2cc(C)nc(N3CCCC3=O)c2)nc2c(C(N)=O)cnn12` [I-54], in assay [1], the dissociation constant Kd was in the range of 1 to 10 nM. The inhibition at 10 µM was under 50% in assay [2] (compound at 10 μM, ATP 10 μM) and under 50% in assay [3] (compound at 10 μM, ATP 10 μM).

`CNc1cc(Nc2cccc3ocnc23)nc2c(C(=O)N[C@H]3CC[C@H]3O)cnn12` [I-771] yielded a Kd in assay [1] of 0.2 to 1 nM. The inhibition at 10 µM in assay [2] (compound at 10 μM, ATP 10 μM) was under 50%; in assay [3] (compound at 10 μM, ATP 10 μM), under 50%.

`CNc1cc(Nc2cccn([C@H]3CCC[C@@H](OC)C3)c2=O)nc2c(C(=O)N[C@@H]3C[C@@H]3F)cnn12` [I-795] yielded a Kd in assay [1] of under 0.2 nM. The inhibition at 10 µM in assay [2] (compound at 10 μM, ATP 10 μM) is under 50%; in assay [3] (compound at 10 μM, ATP 10 μM) it was under 50%.

In the case of `CNc1cc(Nc2cccn([C@@H]3CCCC[C@@H]3O)c2=O)nc2c(C(=O)N[C@@H]3C[C@@H]3F)cnn12` [I-889], the equilibrium dissociation constant (Kd) in assay [1] fell in the range of 1 to 10 nM. Further, the inhibition at 10 µM in assay [2] (10 μM compound, 10 μM ATP) is under 50%; in assay [3] (10 μM compound, 10 μM ATP), under 50%.

`CNc1cc(Nc2cccnc2OC)nc2c(C(=O)N[C@H]3[C@@H]4COC[C@@H]43)cnn12` [I-445, N-((1R,5S,6r)-3-oxabicyclo[3.1.0]hexan-6-yl)-5-((2-methoxypyridin-3-yl)amino)-7-(methylamino)pyrazolo[1,5-a]pyrimidine-3-carboxamide]: the dissociation constant (Kd) in assay [1] is 0.2 to 1 nM. Besides, the inhibition at 10 µM in assay [2] (compound at 10 μM, ATP 10 μM) was under 50%; in assay [3] (compound at 10 μM, ATP 10 μM), under 50%.

Turning to `CO[C@H]1C[C@H](Oc2ncc(Cl)cc2Nc2cc(N)n3ncc(C(N)=O)c3n2)C1` [I-119], in assay [1], the equilibrium dissociation constant (Kd) was 1 to 10 nM. The inhibition at 10 µM in assay [2] (compound at 10 μM, ATP 10 μM) is under 50%; in assay [3] (compound at 10 μM, ATP 10 μM), under 50%.

For the compound `CNc1cc(Nc2cccn([C@H]3CC[C@](C)(OC)CC3)c2=O)nc2c(C(=O)NC3CC3)cnn12` [I-361], the Kd in assay [1] was under 0.2 nM. The inhibition at 10 µM in assay [2] (compound at 10 μM, ATP 10 μM) was under 50%; in assay [3] (compound at 10 μM, ATP 10 μM) it was under 50%.

In the case of `CNc1cc(Nc2cccn([C@@H]3CCOC3)c2=O)nc2c(C(=O)NC3CCC3)cnn12` [I-204], the dissociation constant (Kd) in assay [1] fell in the range of 0.2 to 1 nM. Further, the inhibition at 10 µM in assay [2] (compound at 10 μM, ATP 10 μM) was under 50%; in assay [3] (compound at 10 μM, ATP 10 μM) it was under 50%.

In assay [1], `CNc1cc(Nc2cccn(-c3nc(C)co3)c2=O)nc2c(C(=O)N[C@H]3CC[C@H]3O)cnn12` [I-707] showed a Kd of under 0.2 nM. In addition, the inhibition at 10 µM in assay [2] (compound at 10 μM, ATP 10 μM) was under 50%; in assay [3] (compound at 10 μM, ATP 10 μM), under 50%.

In turn, `CNc1cc(Nc2cccn(-c3cccnc3C)c2=O)nc2c(C(=O)N[C@@H]3C[C@@H]3F)cnn12` [I-813] showed a Kd in assay [1] of 0.2 to 1 nM. For the same compound, the inhibition at 10 µM in assay [2] (10 μM compound, 10 μM ATP) was under 50%; in assay [3] (10 μM compound, 10 μM ATP), under 50%.
